# No end group written: not given here.
# Legend:
# [1] = Solubility of peptides in aqueous solutions at different pH (visual inspection, OD, HPLC); type: physicochemical
# Outline: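 Peptides at about 0.25 mM or 1 mM final in water, pH 2 HCl, or pH 5, 7 or 9 buffers with 140 mM NaCl, optionally with about 20% DMSO. Turbidity and particles checked visually before and after centrifugation and by OD. RP-HPLC peak height or area was compared with peptide dissolved in acetonitrile or DMSO.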
# [2] = target: DRB1_0802 (Homo sapiens, UniProt P01903+P01911, A100R/A103L/A169T/F76Y/H45Y/I96F/K41T/L162R/M171V/P40S/Q125H/Q178H/Q39Y/Q99D/R218S/R42G/S66Y/V115G/W38E); assay: Competitive MHC class II binding assay, DRB1_0802
# [3] = target: DRB1_0101 (Homo sapiens, UniProt P01903+P01911, A100R/D57E/F55L/F60I/F76Y/I96L/L162R/M171V/P40L/Q125E/R42F/V115G/Y59C); assay: Competitive MHC class II binding assay, DRB1_0101;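 further: competition against a radiolabeled probe peptide (0.1–1 nM) for purified HLA class II protein over 2–4 days, bound counts read after antibody capture, six competitor levels across 100,000-fold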
# [4] = target: DRB3_0202 (Homo sapiens, UniProt P01903+P79483, A212P/D57E/F66Y/L67A/R103Q/R218S/R40L/S89Y/T80R/V86D/Y55F/Y59H); assay: Competitive MHC class II binding assay, DRB3_0202
# [5] = target: DRB5_0101 (Homo sapiens, UniProt P01903+Q30154); assay: Competitive MHC class II binding assay, DRB5_0101
# [6] = target: DRB1_0401 (Homo sapiens, UniProt P01903+P01911, A100K/A169T/F76Y/I96L/K127E/L162R/M171V/N62H/P40V/Q125Y/R42H/S133A/S149N/S66Y/V115G/V209L/W38E); assay: Competitive MHC class II binding assay, DRB1_0401
# [7] = target: DRB1_1101 (Homo sapiens, UniProt P01903+P01911, A100R/A169T/A87E/I96F/K41T/L162R/M171V/P40S/Q125H/Q178H/Q39Y/Q99D/R42S/S66Y/T262R/V115G/W38E); assay: Competitive MHC class II binding assay, DRB1_1101
# [8] = target: DQA10401-DQB10402; assay: Competitive MHC class II binding assay, DQA10401-DQB10402; conditions: for IC50: read-out: HLA-DQA10401-DQB10402, positive binding at cutoff 1000 nM
# [9] = target: DQA10301-DQB10302 (Homo sapiens, UniProt P01909+P01920, A209T/A45G/C70Q/D89A/DUP78-78/E183D/E77G/F237L/G63E/H199R/I129T/K197E/L178F/L74F/L98V/Q57E/Q76R/S185I/S97I/T217I/T49S/V73L/Y58L); assay: Competitive MHC class II binding assay, DQA10301-DQB10302
# [10] = target: T1, DPA10103-DPB10402 (Homo sapiens, UniProt P04440+P20036, A65V/A84D/A85E/L207M); assay: Competitive MHC class II binding assay, DPA10103-DPB10402
# T1 sequence (P20036 29-260): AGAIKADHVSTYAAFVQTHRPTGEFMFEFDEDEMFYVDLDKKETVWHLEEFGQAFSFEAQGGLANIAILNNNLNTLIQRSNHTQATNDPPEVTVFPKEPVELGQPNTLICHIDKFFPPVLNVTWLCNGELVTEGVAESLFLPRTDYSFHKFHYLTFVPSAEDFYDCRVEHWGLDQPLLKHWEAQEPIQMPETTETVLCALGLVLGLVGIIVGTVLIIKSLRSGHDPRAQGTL
# T1 sequence (P04440 30-258 A65V/A84D/A85E): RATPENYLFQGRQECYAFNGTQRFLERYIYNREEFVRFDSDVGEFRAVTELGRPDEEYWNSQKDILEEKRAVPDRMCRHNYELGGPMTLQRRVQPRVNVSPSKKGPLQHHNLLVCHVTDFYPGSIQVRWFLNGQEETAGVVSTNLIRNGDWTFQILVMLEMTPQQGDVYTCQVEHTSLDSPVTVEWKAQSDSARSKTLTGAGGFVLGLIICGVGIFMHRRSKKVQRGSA
Compound,"Solubility at pH 7 ([1]; Table 11a, evaluated by visual inspection)",IC50 [2],IC50 [3],IC50 [4],IC50 [5],IC50 [6],IC50 [7],Solubility at pH 7 (visual inspection) [1],IC50 [8],IC50 [9],IC50 [10],binding to HLA Class II allele DQA10401-DQB10402 ([8]; as shown in Table 16a),binding to HLA Class II allele DRB3_0202 ([4]; as shown in Table 16a)
GSGSSWAFSGVAATESAYLA [pep-044],,,< 1000 nM,< 1000 nM,,< 1000 nM,< 1000 nM,,< 1000 nM,< 1000 nM,< 1000 nM,,
DNGYGYFAANIDLMMIEE [pep-010],,< 1000 nM,< 1000 nM,< 1000 nM,,< 1000 nM,,,< 1000 nM,< 1000 nM,< 1000 nM,binds to at least the same alleles as peptide 041,binds to at least the same alleles as peptide 041

# The next lines start with results.
"Solubility at pH 7 ([1]; Table 11a, evaluated by visual inspection)",IC50 [2],IC50 [3],IC50 [4],IC50 [5],IC50 [6],IC50 [7],Solubility at pH 7 (visual inspection) [1],IC50 [8],IC50 [9],IC50 [10],Compound,binding to HLA Class II allele DQA10401-DQB10402 ([8]; as shown in Table 16a),binding to HLA Class II allele DRB3_0202 ([4]; as shown in Table 16a)
Clear,< 1000 nM,< 1000 nM,< 1000 nM,< 1000 nM,,,,,,,LVKGQQYDIKYTWNVPKIAPK [pep-131],,
,< 1000 nM,< 1000 nM,,< 1000 nM,< 1000 nM,,,,,,LVGDNGVLASAIATHAKIRD [pep-110],,
,< 1000 nM,,,,< 1000 nM,< 1000 nM,Slight turbid,,,,HAVNIVGYSNAQGVDYWIVR [pep-058],,
,< 1000 nM,< 1000 nM,,< 1000 nM,,,Slight turbid,,< 1000 nM,< 1000 nM,CC[C@H](C)[C@H](NC(=O)CNC(=O)[C@@H](NC(=O)[C@@H](NC(=O)[C@@H](NC(=O)[C@H](C)NC(=O)[C@@H](NC(=O)[C@H](C)NC(=O)[C@H](CO)NC(=O)[C@H](Cc1c[nH]cn1)NC(=O)[C@@H](NC(=O)[C@H](CCC(N)=O)NC(=O)[C@H](C)NC(=O)[C@H](CC(C)C)NC(=O)[C@H](C)NC(=O)[C@H](CCC(=O)O)NC(=O)[C@@H](N)CCCNC(=N)N)[C@@H](C)O)[C@@H](C)CC)C(C)C)[C@@H](C)CC)[C@@H](C)CC)C(=O)N[C@@H](CCCCN)C(=O)N[C@@H](CC(=O)O)C(=O)N[C@@H](CC(C)C)C(=O)N[C@@H](CC(=O)O)C(=O)N[C@@H](C)C(=O)O [pep-130],,

# — patent US20160251403A1, “PEPTIDE COMBINATIONS AND USES THEREOF IN TREATING DUST MITE ALLERGY” (ALK-ABELLO A/S, priority 2013, published 2016)
